Data from patent US8426369B2, “Prevention and treatment of colon cancer” (Rutgers, The State University of New Jersey, priority 2006, dated 2013).

Assays:
p38 = assay: Western blot of phosphorylated p38 in cytokine-treated HT-29 cells; format: cell-based, human
Protocol: (§1) The cell culture conditions and the reagents used in this example were described in Example 32. Whole cell extracts were collected after the various treatments and analyzed by western blotting. The protein samples were separated on 4-15% SDS-PAGE gels (Biorad, Hercules, Calif.) followed by transfer to a polyvinylidene fluoride membrane. The membranes were blocked with 5% milk in Tris buffer for 1 h and then incubated with the appropriate primary antibody solutions overnight at 4° C. The membranes were washed with Tris buffer, and incubated with horseradish peroxidase conjugated secondary antibody solutions for 1 h at room temperature.
(§2) The protein bands were visualized using a chemiluminescence based kit from Amersham Biosciences (Buckinghamshire, UK). The primary antibodies against iNOS, COX-2, IκBα, cyclin D1, c-myc (Santa Cruz Bio-technology, Santa Cruz, Calif.), phospho-STAT3, phospho-Erk1/2, phospho-JNK1/2, phospho-p38, phospho-Akt, phospho-ATF2, phospho-Elk1, PARP (Cell Signaling Technology Inc., Beverly, Mass.) and actin (Sigma, St. Louis, Mo.) and secondary antibodies (Santa Cruz Biotechnology, Santa Cruz, Calif.) were used for probing the abundance of the target protein in the samples.

iNOS mRNA = assay: Quantitative RT-PCR of cytokine-induced iNOS mRNA in HT-29 cells; format: cell-based, human; conditions: 10 and 30 μM
Protocol: The cell culture conditions and the reagents used in this example were described in Example 32. The gene-mediated expression of iNOS and COX-2 are reported to be regulated at both the transcriptional and translational levels. In order to understand the effect of pterostilbene on cytokine-induced expression of proinflammatory enzymes and cytokines, RNA samples after treatment of HT-29 cells with cytokines and/or pterostilbene were analyzed by quantitative RT-PCR for the induction of mRNA levels of iNOS, COX-2, IL-1β, IFN-γ and TNF-α genes.
To determine the changes of mRNA levels by pterostilbene and cytokines, quantitative RT-PCR analysis was utilized, as described previously (Lee et al., Mol Pharmacol 2006; 69(6):1840-1848). Briefly, the cells were incubated with compounds for indicated period and the cells were then lysed using Trizol to extract RNA. RNA was reverse transcribed into cDNA using a high capacity cDNA archive kit (Applied Biosystems, Foster City, Calif.). The cDNA was used for quantitative PCR which was run on the ABI Prism […] sequence Detection System. The primers for the iNOS, COX-2, IFN-γ, TNF-α, IL-1β and GAPDH were obtained from Applied Biosystems (Foster City, Calif.).

cleaved PARP = assay: Western blot of cleaved PARP in HT-29 cells (apoptosis marker); format: cell-based, human; conditions: 9 h or 18 h
Protocol: (§3) The cells were incubated with different concentrations of pterostilbene for 1, 2 and 3 days, and cell proliferation was estimated by measuring [^3H]thymidine incorporated into DNA. […] In order to evaluate whether pterostilbene potentiates cell cycle arrest or apoptosis in HT-29 cells, the effect of pterostilbene on the proteins regulating the cell cycle and/or apoptosis pathways was examined. Cells treated with pterostilbene for 9 h or 18 h were harvested and protein samples were analyzed by Western blotting (FIG. 8B).
as §1
(§4) The protein bands were visualized using a chemiluminescence based kit from Amersham Biosciences (Buckinghamshire, UK). […]

[1] = rats; cited from earlier work
p-Smad3 = assay: Activated Smad levels (p-Smad3) in HT-29 cells; format: cell-based, human; conditions: HT-29, data not shown
Text: The significance of the transforming growth factor (TGF-β) pathway in down-regulating iNOS expression by pterostilbene was also investigated since TGF-β is a very potent inhibitor of iNOS and cytokines regulate Smad signaling of the TGF-β pathway. However, there was no effect of pterostilbene on activated Smad levels (p-Smad3) or in inducing TGF-β ligands (data not shown).

mucin MUC2 = assay: Mucin MUC2 immunostaining of colon sections; format: in vivo, male F344 rats; conditions: 40 ppm in diet, AOM-treated rats
Protocol: Animals were treated as described in Example 27. Colon samples from each group were harvested at autopsy and fixed in 10% formalin for 24 hr. They were sectioned into 8 to 10 segments, paraffin embedded, and microtomed into 4 μm thick tissue sections. The slides were incubated overnight at room temperature with antibody to proliferating cell nuclear antigen (PCNA) (1:1000 diluted, BD Pharmingen, San Diego, Calif.), iNOS (1:100 diluted, Santa Cruz Biotechnology, Santa Cruz, Calif.), or mucin MUC2 (1:250 diluted, Santa Cruz Biotechnology, Santa Cruz, Calif.).
The slides were incubated with the biotinylated secondary antibody, and then with avidin/biotinylated peroxidase complex for 30 min at room temperature (Vector Labs, Burlingame, Calif.), and were incubated with […] (DAB) substrate. The sections were then counter-stained with Modified Harris Hematoxylin. The images were taken randomly at 400× using Zeiss AxioCam HRc camera fitted to a Zeiss Axioskope 2 Plus microscope. A positive reaction is noted by a reddish brown precipitate in the nucleus for PCNA, in the cytoplasm for iNOS or in the colon crypts for mucin MUC2.

p-Akt = assay: Western blot of p-Akt in cytokine-treated HT-29 cells; format: cell-based, human
Protocol: as §1, §2

p21 = assay: Western blot of p21 in HT-29 cells; format: cell-based, human; conditions: HT-29, data not shown
Protocol: as §3, §1, §4

For `COc1cc(/C=C/c2ccc(O)cc2)cc(OC)c1` [pterostilbene, (E)-4-(3,5-dimethoxystyryl)phenol], the “activation of p38 by cytokines” value (p38) was “strongly inhibited”, the “iNOS mRNA induction by the cytokine mixture” value (iNOS mRNA) was “strongly inhibited” and the “level of cleaved PARP” value (cleaved PARP) was “increased”. The serum glucose [1] was “lower serum glucose”, the “activated Smad levels (p-Smad3)” value (p-Smad3) was “no effect” and the “mucin MUC2 staining of colon mucosa” value (mucin MUC2) was “abundant secretion of mucin MUC2”. The “level of p-Akt” value (p-Akt) was “did not change” and the “induction of p21” value (p21) was “no induction”.
